Measured values reported in ChEMBL document CHEMBL5104164, “Design, synthesis, and biological evaluation of pyrrolopyrimidine derivatives as novel Bruton's tyrosine kinase (BTK) inhibitors” (Eur J Med Chem, 2022).
Calls of active or inactive are those of the source. The calls are words filed in the database; no cut-off is given here.

How the values were obtained:
TMD8 [1] = assay: Cell cycle arrest in human TMD8 cells assessed as accumulation of cells at S phase at 1 nM after 48 hrs by propidium iodide staining based flow cytometric analysis (reference value: 49.3%); assay type: functional
TMD8 [2] = assay: Cell cycle arrest in human TMD8 cells assessed as accumulation of cells at G2 phase at 100 nM after 48 hrs by propidium iodide staining based flow cytometric analysis (reference value: 13.4%); assay type: functional
Rec1 = assay: Antiproliferative activity against human REC1 cells incubated for 72 hrs by CellTiter-Glo assay; assay type: functional, cell-based; details: Rec1, 72 h
[3] = molecular target: T1, Tyrosine-protein kinase BTK (Homo sapiens, UniProt Q06187); assay: Inhibition of BTK (unknown origin) assessed as residual percent of control at 1 uM measured by DiscoverX kinome scan assay relative to control
T1 sequence (Q06187 whole entry): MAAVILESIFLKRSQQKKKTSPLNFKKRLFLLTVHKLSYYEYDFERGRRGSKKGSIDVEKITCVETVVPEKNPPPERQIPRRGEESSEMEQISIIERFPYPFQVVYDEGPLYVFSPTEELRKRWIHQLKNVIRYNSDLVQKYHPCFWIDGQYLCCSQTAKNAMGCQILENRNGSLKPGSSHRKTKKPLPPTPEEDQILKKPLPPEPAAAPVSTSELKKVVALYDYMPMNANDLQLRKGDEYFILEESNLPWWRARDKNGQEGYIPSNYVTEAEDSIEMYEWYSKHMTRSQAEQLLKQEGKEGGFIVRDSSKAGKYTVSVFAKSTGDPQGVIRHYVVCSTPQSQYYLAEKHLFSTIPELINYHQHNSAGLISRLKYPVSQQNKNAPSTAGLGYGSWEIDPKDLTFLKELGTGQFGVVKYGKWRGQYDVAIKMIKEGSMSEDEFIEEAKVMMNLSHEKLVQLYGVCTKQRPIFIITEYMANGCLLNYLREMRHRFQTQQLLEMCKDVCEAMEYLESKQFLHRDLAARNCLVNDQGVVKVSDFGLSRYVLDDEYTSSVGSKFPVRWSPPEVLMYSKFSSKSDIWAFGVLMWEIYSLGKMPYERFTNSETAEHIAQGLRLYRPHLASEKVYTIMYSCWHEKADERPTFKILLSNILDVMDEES

[4] = molecular target: T1, Tyrosine-protein kinase BTK; assay: Inhibition of BTK (unknown origin) measured by ADP-Glo assay
[5] = Toxicity in female CB-17 SCID nude mouse xenografted with human TMD8 cells assessed as effect on platelets at 50 mg/kg, po administered twice daily for 21 days; assay type: organism-based; details: in vivo, 504 h, time 21 day
[6] = AUC (0 to infinity) in male BALB/c mouse at 2 mg/kg, iv; assay type: ADME, organism-based; set-up: time infinity, dose 2 mg/kg, route iv; details: in vivo
SU-DHL-6 = assay: Antiproliferative activity against human SU-DHL-6 cells incubated for 72 hrs by CellTiter-Glo assay; assay type: functional, cell-based; details: SU-DHL-6, 72 h
TMD8 [7] = assay: Cell cycle arrest in human TMD8 cells assessed as accumulation of cells at G0/G1 phase at 1 nM after 48 hrs by propidium iodide staining based flow cytometric analysis (reference value: 32.9%); assay type: functional
[8] = molecular target: Voltage-gated inwardly rectifying potassium channel KCNH2 (Homo sapiens, UniProt Q12809); assay: Inhibition of hERG; assay type: toxicity
Voltage-gated inwardly rectifying potassium channel KCNH2, sequence (Q12809 whole entry): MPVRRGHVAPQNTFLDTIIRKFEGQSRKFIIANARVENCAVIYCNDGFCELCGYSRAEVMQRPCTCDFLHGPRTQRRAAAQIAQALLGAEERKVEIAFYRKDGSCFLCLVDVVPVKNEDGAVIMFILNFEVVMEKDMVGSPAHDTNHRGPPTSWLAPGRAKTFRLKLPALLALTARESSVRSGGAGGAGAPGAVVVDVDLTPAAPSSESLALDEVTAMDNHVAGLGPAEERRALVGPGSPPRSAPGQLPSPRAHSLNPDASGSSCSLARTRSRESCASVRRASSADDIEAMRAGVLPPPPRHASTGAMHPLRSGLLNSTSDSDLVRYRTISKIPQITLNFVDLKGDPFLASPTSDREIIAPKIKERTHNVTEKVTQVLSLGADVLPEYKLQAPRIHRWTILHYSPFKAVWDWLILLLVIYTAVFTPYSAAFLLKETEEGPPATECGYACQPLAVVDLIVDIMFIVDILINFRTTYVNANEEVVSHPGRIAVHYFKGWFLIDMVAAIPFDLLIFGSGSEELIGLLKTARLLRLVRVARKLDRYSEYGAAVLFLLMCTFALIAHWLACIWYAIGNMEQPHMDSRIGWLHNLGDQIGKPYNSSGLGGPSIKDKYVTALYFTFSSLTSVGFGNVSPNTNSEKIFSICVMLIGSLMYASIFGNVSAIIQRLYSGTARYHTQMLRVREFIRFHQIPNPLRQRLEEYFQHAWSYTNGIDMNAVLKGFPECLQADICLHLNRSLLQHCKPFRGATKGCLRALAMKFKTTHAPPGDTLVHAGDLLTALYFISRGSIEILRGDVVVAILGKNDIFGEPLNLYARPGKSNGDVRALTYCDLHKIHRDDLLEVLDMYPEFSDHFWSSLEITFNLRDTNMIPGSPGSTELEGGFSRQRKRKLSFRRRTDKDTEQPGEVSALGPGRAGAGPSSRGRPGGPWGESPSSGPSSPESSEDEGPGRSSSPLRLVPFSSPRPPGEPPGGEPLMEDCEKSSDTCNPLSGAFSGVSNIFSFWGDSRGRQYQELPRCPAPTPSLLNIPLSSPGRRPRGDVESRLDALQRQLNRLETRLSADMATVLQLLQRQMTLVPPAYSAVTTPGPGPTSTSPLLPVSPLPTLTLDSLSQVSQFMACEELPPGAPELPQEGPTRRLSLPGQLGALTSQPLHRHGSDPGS

[9] = Apparent volume of distribution in male BALB/c mouse at 2 mg/kg, iv; assay type: ADME, organism-based; details: in vivo, read-out: Vz
[10] = Mutagenicity in Salmonella typhimurium TA98 at 1.5 to 1000 ug per plate in presence of liver microsomes by AMES test; assay type: toxicity, Salmonella enterica subsp. enterica serovar Typhimurium; details: dose 1.5-1000 µg
[11] = Mutagenicity in Salmonella typhimurium TA1537 at 1.5 to 1000 ug per plate in presence of liver microsomes by AMES test; assay type: toxicity, Salmonella enterica subsp. enterica serovar Typhimurium; details: dose 1.5-1000 µg
[12] = Cmax in male BALB/c mouse at 2 mg/kg, iv; assay type: ADME, organism-based; set-up: dose 2 mg/kg, route iv; details: in vivo
TMD8 [13] = assay: Induction of apoptosis in human TMD8 cells assessed as apoptotic cells 1000 nM incubated for 72 hrs by AnnexinV-FITC/propidium iodide staining based flow cytometric analysis; assay type: functional
[14] = Toxicity in female CB-17 SCID nude mouse xenografted with human TMD8 cells assessed as reduction in white blood cells at 50 mg/kg, po administered twice daily for 21 days; assay type: organism-based; details: in vivo, 504 h, time 21 day
[15] = Tmax in male BALB/c mouse at 10 mg/kg, po; assay type: ADME, organism-based; details: in vivo
[16] = Half-life in male BALB/c mouse at 10 mg/kg, po; assay type: ADME, organism-based; details: in vivo
TMD8 [17] = assay: Cell cycle arrest in human TMD8 cells assessed as accumulation of cells at G0/G1 phase at 10 nM after 48 hrs by propidium iodide staining based flow cytometric analysis (reference value: 32.9%); assay type: functional
[18] = molecular target: Epidermal growth factor receptor (Homo sapiens) (UniProt P00533); assay: Inhibition of EGFR (unknown origin) assessed as residual percent of control at 1 uM measured by DiscoverX kinome scan assay relative to control
Epidermal growth factor receptor (Homo sapiens), sequence (P00533 whole entry): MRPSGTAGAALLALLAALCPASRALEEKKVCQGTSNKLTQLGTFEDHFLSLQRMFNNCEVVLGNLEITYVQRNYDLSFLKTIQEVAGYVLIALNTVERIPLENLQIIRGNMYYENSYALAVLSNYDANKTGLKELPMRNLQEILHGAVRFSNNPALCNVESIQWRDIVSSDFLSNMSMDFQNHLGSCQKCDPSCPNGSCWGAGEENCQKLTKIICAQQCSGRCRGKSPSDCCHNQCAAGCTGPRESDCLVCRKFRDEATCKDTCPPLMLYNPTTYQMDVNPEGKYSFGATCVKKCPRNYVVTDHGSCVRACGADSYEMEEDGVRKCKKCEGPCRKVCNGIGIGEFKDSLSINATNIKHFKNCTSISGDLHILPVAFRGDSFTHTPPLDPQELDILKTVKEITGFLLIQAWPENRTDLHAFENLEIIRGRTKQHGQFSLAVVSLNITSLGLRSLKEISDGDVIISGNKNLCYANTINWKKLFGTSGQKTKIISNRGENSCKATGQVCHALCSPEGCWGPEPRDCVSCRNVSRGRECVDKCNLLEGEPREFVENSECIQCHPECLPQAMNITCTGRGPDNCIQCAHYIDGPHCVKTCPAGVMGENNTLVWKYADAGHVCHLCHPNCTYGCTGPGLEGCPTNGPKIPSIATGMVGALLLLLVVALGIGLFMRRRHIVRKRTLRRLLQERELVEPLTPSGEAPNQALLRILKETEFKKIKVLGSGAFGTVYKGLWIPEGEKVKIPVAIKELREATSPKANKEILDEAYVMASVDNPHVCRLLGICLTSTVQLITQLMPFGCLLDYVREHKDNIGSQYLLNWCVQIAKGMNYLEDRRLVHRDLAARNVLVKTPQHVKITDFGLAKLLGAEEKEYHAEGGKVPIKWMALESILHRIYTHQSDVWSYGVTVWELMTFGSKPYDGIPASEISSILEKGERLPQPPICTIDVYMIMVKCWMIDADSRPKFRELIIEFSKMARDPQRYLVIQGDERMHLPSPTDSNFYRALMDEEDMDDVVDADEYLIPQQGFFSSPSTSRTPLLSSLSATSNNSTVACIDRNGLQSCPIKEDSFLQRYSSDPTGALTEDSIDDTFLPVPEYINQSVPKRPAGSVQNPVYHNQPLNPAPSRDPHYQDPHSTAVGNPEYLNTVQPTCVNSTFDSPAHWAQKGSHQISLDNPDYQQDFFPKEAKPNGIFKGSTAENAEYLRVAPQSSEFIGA

TMD8 [19] = assay: Antiproliferative activity against human TMD8 cells incubated for 72 hrs by CellTiter-Glo assay; details: TMD8, 72 h
OCI-Ly3 = assay: Antiproliferative activity against human OCILY3 cells incubated for 72 hrs by CellTiter-Glo assay; assay type: functional, cell-based; details: OCI-Ly3, 72 h
SUD4 = assay: Antiproliferative activity against human SU-DHL-4 cells incubated for 72 hrs by CellTiter-Glo assay; assay type: functional, cell-based; details: SU-DHL-4, 72 h
[20] = Mutagenicity in Salmonella typhimurium TA1535 at 1.5 to 1000 ug per plate by AMES test; assay type: toxicity, Salmonella enterica subsp. enterica serovar Typhimurium; details: dose 1.5-1000 µg
[21] = Tmax in male BALB/c mouse at 2 mg/kg, iv; assay type: ADME, organism-based; details: in vivo
Pfeiffer = assay: Antiproliferative activity against human Pfeiffer cells incubated for 72 hrs by CellTiter-Glo assay; assay type: functional, cell-based
[22] = molecular target: Receptor tyrosine-protein kinase erbB-4 (Homo sapiens) (UniProt Q15303); assay: Inhibition of ERBB4 (unknown origin) assessed as residual percent of control at 1 uM measured by DiscoverX kinome scan assay relative to control
Receptor tyrosine-protein kinase erbB-4 (Homo sapiens), sequence (Q15303 whole entry): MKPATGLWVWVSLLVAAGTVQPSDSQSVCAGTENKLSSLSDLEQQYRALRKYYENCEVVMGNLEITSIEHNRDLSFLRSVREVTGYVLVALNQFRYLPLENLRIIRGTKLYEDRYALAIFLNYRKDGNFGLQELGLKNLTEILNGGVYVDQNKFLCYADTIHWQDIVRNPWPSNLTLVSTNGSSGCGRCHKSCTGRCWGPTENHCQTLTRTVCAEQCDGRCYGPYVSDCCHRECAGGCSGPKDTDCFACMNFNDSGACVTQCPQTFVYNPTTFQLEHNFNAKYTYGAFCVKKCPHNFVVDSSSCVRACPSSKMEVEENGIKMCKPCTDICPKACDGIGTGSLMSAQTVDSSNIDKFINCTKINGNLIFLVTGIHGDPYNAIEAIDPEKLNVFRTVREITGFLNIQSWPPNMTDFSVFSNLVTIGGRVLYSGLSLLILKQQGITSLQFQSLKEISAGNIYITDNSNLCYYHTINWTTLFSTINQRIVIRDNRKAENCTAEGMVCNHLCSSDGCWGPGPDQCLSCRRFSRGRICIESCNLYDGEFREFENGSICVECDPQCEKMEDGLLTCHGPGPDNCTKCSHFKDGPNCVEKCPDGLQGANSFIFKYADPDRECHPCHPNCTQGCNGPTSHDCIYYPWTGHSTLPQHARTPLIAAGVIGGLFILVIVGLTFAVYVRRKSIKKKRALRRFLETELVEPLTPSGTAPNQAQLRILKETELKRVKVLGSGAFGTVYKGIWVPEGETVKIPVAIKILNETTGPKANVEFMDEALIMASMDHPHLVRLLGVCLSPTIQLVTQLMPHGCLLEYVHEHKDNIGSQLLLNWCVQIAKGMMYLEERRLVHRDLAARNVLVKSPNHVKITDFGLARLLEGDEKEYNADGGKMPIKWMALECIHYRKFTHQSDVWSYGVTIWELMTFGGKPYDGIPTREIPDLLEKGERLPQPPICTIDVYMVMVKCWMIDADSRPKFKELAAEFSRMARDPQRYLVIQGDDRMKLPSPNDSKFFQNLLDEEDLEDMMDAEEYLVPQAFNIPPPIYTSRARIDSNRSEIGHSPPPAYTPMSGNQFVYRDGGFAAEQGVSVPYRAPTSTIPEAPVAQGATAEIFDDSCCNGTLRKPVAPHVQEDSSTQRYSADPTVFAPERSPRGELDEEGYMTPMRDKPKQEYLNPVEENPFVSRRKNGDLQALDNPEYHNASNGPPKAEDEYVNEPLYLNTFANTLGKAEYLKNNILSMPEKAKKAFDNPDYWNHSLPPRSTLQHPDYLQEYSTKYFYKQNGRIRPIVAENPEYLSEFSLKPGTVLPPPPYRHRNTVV

[23] = Half-life in male BALB/c mouse at 2 mg/kg, iv; assay type: ADME, organism-based; details: in vivo
DOHH-2 = assay: Antiproliferative activity against human DOHH-2 cells incubated for 72 hrs by CellTiter-Glo assay; assay type: functional, cell-based; details: DOHH-2, 72 h
[24] = Toxicity in female CB-17 SCID nude mouse xenografted with human TMD8 cells assessed as reduction in monocytes at 50 mg/kg, po administered twice daily for 21 days; assay type: organism-based; details: in vivo, 504 h, time 21 day
TMD8 [25] = assay: Cell cycle arrest in human TMD8 cells assessed as accumulation of cells at S phase at 10 nM after 48 hrs by propidium iodide staining based flow cytometric analysis (reference value: 49.3%); assay type: functional
[26] = Mutagenicity in Salmonella typhimurium TA100 at 1.5 to 1000 ug per plate in presence of liver microsomes by AMES test; assay type: toxicity, Salmonella enterica subsp. enterica serovar Typhimurium; details: dose 1.5-1000 µg
TMD8 [27] = assay: Cell cycle arrest in human TMD8 cells assessed as accumulation of cells at G0/G1 phase at 100 nM after 48 hrs by propidium iodide staining based flow cytometric analysis (reference value: 32.9%); assay type: functional
Ramos = assay: Antiproliferative activity against human Ramos cells incubated for 72 hrs by CellTiter-Glo assay; assay type: functional, cell-based
TMD8 [28] = assay: Induction of apoptosis in human TMD8 cells assessed as apoptotic cells 100 nM incubated for 72 hrs by AnnexinV-FITC/propidium iodide staining based flow cytometric analysis; assay type: functional
TMD8 [29] = assay: In vivo inhibition of BTK in female CB-17 SCID nude mouse xenografted with human TMD8 cells assessed as reduction in p-BTK (Tyr223) expression at 12.5 to 50 mg/kg, po administered twice daily for 21 days; assay type: functional, organism-based; details: dose 12.5-50 mg/kg, time 21.0 day
TMD8 [30] = assay: Cell cycle arrest in human TMD8 cells assessed as accumulation of cells at S phase at 100 nM after 48 hrs by propidium iodide staining based flow cytometric analysis (reference value: 49.3%); assay type: functional
[31] = Antiproliferative activity against human MINO cells incubated for 72 hrs by CellTiter-Glo assay; assay type: functional, cell-based
[32] = Mutagenicity in Salmonella typhimurium TA98 at 1.5 to 1000 ug per plate by AMES test; assay type: toxicity, Salmonella enterica subsp. enterica serovar Typhimurium; details: dose 1.5-1000 µg
TMD8 [33] = assay: Antitumor activity against human TMD8 cells xenografted in female CB-17 SCID nude mouse assessed as tumor suppression at 12.5 to 25 mg/kg, po administered twice daily for 21 days; assay type: functional, organism-based; details: dose 12.5-25 mg/kg, time 21.0 day
[34] = Clearance in male BALB/c mouse at 2 mg/kg, iv; assay type: ADME, organism-based; details: in vivo
TMD8 [35] = assay: Induction of apoptosis in human TMD8 cells assessed as apoptotic cells 10 nM incubated for 72 hrs by AnnexinV-FITC/propidium iodide staining based flow cytometric analysis; assay type: functional

- Activity [3]: 0.05%
- IC50 [4]: 0.0007 µM
- AUC(0-inf) [6]: 718 ng·h/mL
- IC50 (SU-DHL-6): > 10 µM
- Vd [9]: 2.79 L/kg
- Cmax [12]: 2250 ng/mL
- Tmax [15]: 23.4 min
- half-life [16]: 35.4 min
- Activity [18]: 44%
- IC50 (OCI-Ly3): > 10 µM
- Tmax [21]: 1.8 min
- Activity [22]: 0.55%
- half-life [23]: 40.2 min
- IC50 (Ramos): > 10 µM
- clearance [34]: 47.8 mL/min/kg
Compound: C=CC(=O)N1CC=C(c2c[nH]c3ncnc(-c4ccc(CNC(=O)c5ccccc5)c(F)c4)c23)CC1
- Activity (TMD8 [1]): 49.3%
- Activity (TMD8 [2]): 6.4%
- IC50 (Rec1): 0.0017 µM
- Activity [5]: Non-Toxic
- Activity (TMD8 [7]): 33%
- IC50 [8]: 4.38 µM
- Activity [10]: Non-Toxic
- Activity [11]: Non-Toxic
- Activity (TMD8 [13]): 31.4%
- Activity [14]: Toxic
- Activity (TMD8 [17]): 59.2%
- IC50 (TMD8 [19]): 0.0026 µM
- IC50 (SUD4): > 10 µM
- Activity [20]: Non-Toxic
- IC50 (Pfeiffer): > 10 µM
- IC50 (DOHH-2): 5.26 µM
- Activity [24]: Toxic
- Activity (TMD8 [25]): 26.4%
- Activity [26]: Non-Toxic
- Activity (TMD8 [27]): 63%
- Activity (TMD8 [28]): 25.2%
- Activity (TMD8 [29]): Active
- Activity (TMD8 [30]): 24.6%
- IC50 [31]: > 10 µM
- Activity [32]: Non-Toxic
- Activity (TMD8 [33]): Active
- Activity (TMD8 [35]): 19%
